This note sets out measurements from US11150234B2, “Method for evaluating taxic behavior in response to odor substance based on olfactory sense in nematodes, and dish and behavior evaluation system used in evaluation method” (priority 2016, dated 2021).

For one assay, the system named is wild type C. elegans. Description: Taxic behavior evaluation through olfactory sense using 5 cm×2 cm rectangular dish, without nematicide. The format is in vivo, Caenorhabditis elegans. As to conditions: for taxis index: 10 minutes after dissemination, 1 μL isoamyl alcohol diluted 1000-fold with water or 1 μL nonanone stock solution, average of 5 experiments. The protocol: First, a rectangular dish having a bottom surface of 5 cm×2 cm was fabricated as an example (see FIGS. 1A and B). Nematodes were disseminated into a region defined by two lines at the center of the rectangular dish in the longitudinal direction, and an attractant or a repellent was applied to the region at the left end. […] In this example, isoamyl alcohol was used as an attractant, and nonanone was used as a repellent. Specifically, isoamyl alcohol was diluted 1000-fold with water, and 1 μL thereof was applied to the region at the left end. Further, 1 μL of the stock solution of nonanone was applied to the region at the left end. As the nematodes, wild type C. elegans (10 to 50 nematodes/experiment) were used. […] Specifically, the difference in the number of nematodes between those moved to the region (region indicated by O-mark in FIG. 4, corresponding to region 1 of the first embodiment) located between the region at the left end to which an attractant or a repellent was applied and the region at the center in the longitudinal direction in which the nematodes were disseminated and those moved to the region on the opposite side (region indicated by X-mark in FIG. 4, corresponding to region 2 of the first embodiment) was determined, and the result was divided by the number of all nematodes to determine the taxis index. Taxis Index (Taxis index)={(the number of nematodes in region indicated by symbol “O”)−(the number of nematodes in region indicated by symbol “X”)}/the number of all nematodes The experiment was repeated 5 times, to determine the average of taxis indices and SEM. The taxic behavior was evaluated in the same manner as in Example 1 except that urine (1/20 dilution) of a cancer patient or urine (1/20 dilution) of a healthy individual was used as an attractant or a repellent. […] Urine obtained from a plurality of different cancer patients was used.

Another assay deals with N2 Bristol strains. The experiment in a line: Taxic behavior evaluation system of third embodiment (5 cm×2 cm×1 mm recess in solid medium covered with plate). The format is in vivo, Caenorhabditis elegans. As to conditions: 23° C., IAA diluted 10^−5-fold. On the procedure: The taxic behavior based on olfactory sense was evaluated using N2 Bristol strains that are nematode strains. […] After a reagent was mixed using the culture medium composition of the assay plate, followed by autoclaving, an appropriate amount of the reagent was poured into a 9 cm dish, and the solid medium was solidified by cooling while pressing a plastic plate of 5 cm×2 cm×1 mm against the surface. After the solid medium was solidified, the plastic plate was removed, to form a recess with a length of 5 cm, a width of 2 cm, and a depth of 1 mm on the surface of the solid medium. Then, isoamyl alcohol (IAA) diluted 10^-5-fold or nonanone (Nona) diluted 10^-3-fold was arranged at the position shown by the symbol “+” on the right side of FIG. 13, and nematodes cultured at 20° C. for 4 days were arranged at the center (which corresponded to region B in FIG. 13). Thereafter, the taxic behavior of nematodes at 23° C. was observed. The number of nematodes in the regions corresponding to regions A, B, and C in FIG. 13 were counted after a lapse of 0 minutes, 5 minutes, 10 minutes, and 20 minutes. The number of nematodes remaining was calculated as a ratio of the number of nematodes in response to the number of nematodes at 0 minutes at each time. Further, the taxis index was calculated based on the formula [[…])]. Here, N (A) is the number of nematodes that moved to region A, and N (B) is the number of nematodes that moved to region B.

Where [1] appears, read: at 5 minutes, nonanone diluted 10^−3-fold.

Turning to `CC(C)CCO` [isoamyl alcohol], the taxis index result in the assay with wild type C. elegans is reported as “over 0.8”. The “nematodes showing attraction behavior in response to the attractant” value in the assay on wild type C. elegans (10 minutes, from taxis index) is at least 90%. In addition, the taxic behavior observed entry in the assay with N2 Bristol strains (setting [1]) and in the assay on N2 Bristol strains (at 20 minutes) was “migration behavior” throughout.
Take `CCCCCCCC(C)=O` [nonanone]: the taxis index entry with wild type C. elegans is reported as “below −0.8”. In addition, the “nematodes showing avoidance behavior in response to the repellent” value in the assay with wild type C. elegans (10 minutes, from taxis index) is recorded as at least 90%. Moreover, the taxic behavior observed entry in the assay on N2 Bristol strains (setting [1]) is recorded as “avoidance behavior”.
